Laboratory results from patent publication US5614508A, “Amino acid derivatives of substituted quinoxaline 2,3-dione derivatives as glutamate receptor antagonists” (Warner-Lambert Company, priority 1995, dated 1997).

Experiments:
AMPA receptors = experiment: binding affinity for the AMPA receptors (Honore et al.); settings: Table 1, AMPA
[1] = molecular target: kainate site (non-NMDA receptor); experiment: binding affinity for the kainate site (non-NMDA receptor) (London and Coyle); settings: Table 1, KA

Row | IC50 (AMPA receptors) [µM] | IC50 KA [1] [µM] | SMILES
1 | 1.76 | 4.68 | C=Cc1c(Br)cc2[nH]c(=O)c(=O)[nH]c2c1CN(C)CC(=O)O [Compound 1, [(7-Bromo-2,3-dioxo-6-vinyl-1,2,3,4-tetrahydro-quinoxalin-5-ylmethyl)-methyl-amino]-acetic acid]
2 | 2.35 | 6.72 | CCc1c(Br)cc2[nH]c(=O)c(=O)[nH]c2c1CN(C)CC(=O)O [Compound 2, [(7-Bromo-6-ethyl-2,3-dioxo-1,2,3,4-tetrahydro-quinoxalin-5-ylmethyl)-methyl-amino]-acetic acid]
3 | 0.128 | 3.48 | CCOC(=O)CN(C)Cc1c(CC)c([N+](=O)[O-])cc2[nH]c(=O)c(=O)[nH]c12 [Compound 3, [(6-Ethyl-7-nitro-2,3-dioxo-1,2,3,4-tetrahydro-quinoxalin-5-ylmethyl)-methyl-amino]-acetic acid ethyl ester]
4 | 3.92 | 17.05 | CCc1ccc2[nH]c(=O)c(=O)[nH]c2c1CN(C)CC(=O)O [Compound 4, [(6-Ethyl-2,3-dioxo-1,2,3,4-tetrahydro-quinoxalin-5ylmethyl)-methyl-amino]-acetic acid]
